# Biological target: Human DAAO enzyme (Homo sapiens (Human), UniProt P14920)
# Assay: In Vitro DAAO Enzyme Assay (Amplex Red detection of H2O2 from D-Serine)
# Format: biochemical
# Conditions: inhibition of DAAO activity in the presence of 10 mM D-Serine; 60 minutes at 25° C.
# Method: In Vitro DAAO Enzyme Assay
# The functional activity of compounds inhibiting the DAAO enzyme was determined by utilizing the co-product of the catalysis of D-Serine, H2O2, which can be quantitatively measured using the ‘Amplex’ (trade mark) Red (Invitrogen) detection. ‘Amplex’ Red reagent is a colorless substrate that reacts with hydrogen peroxide (H2O2) with a 1:1 stoichiometry to produce highly fluorescent resorufin (excitation/emission maxima=570/585 nm).
# The Km of D-Serine was measured for each enzyme batch to maintain consistency; this Km was used in subsequent assays.
# On the day of the assay compounds were serially diluted in DMSO before being diluted 1:20 with assay buffer (20 mM Tris ph 7.4). […] Finally 5 μl ‘Amplex’ red reagent (Invitrogen) was added to all wells as per manufacturer's protocol. The plate was incubated for 60 minutes in the dark at 25° C. and the fluorescence in each well was measured in the Envision plate reader.
# Concentration response curves were generated using the average of duplicate wells for each data point and analyzed using non-linear regression and four parameter curve fit.
# Sequence of Human DAAO enzyme (P14920 whole entry): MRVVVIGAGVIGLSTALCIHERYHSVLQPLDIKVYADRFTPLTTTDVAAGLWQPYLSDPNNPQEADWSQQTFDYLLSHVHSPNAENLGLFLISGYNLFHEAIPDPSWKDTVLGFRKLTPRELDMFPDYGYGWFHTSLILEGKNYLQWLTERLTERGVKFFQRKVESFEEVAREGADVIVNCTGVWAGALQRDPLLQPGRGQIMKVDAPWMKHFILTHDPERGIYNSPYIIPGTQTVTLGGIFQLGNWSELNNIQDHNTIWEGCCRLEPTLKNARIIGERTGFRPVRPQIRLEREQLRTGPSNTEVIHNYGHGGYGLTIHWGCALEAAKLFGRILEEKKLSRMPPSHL
row,SMILES,IC50
1,"CC(C)(C)c1cc(O)c(=O)[nH]n1 [Example 14, 6-tert-Butyl-4-hydroxypyridazin-3(2H)-one]",44 nM
2,"O=c1[nH]nc(N2CCC2)cc1O [Example 9, 6-(Azetidin-1-yl)-4-hydroxypyridazin-3(2H)-one]",2500 nM
3,"O=c1[nH]nc(C2CCCCC2)cc1O [Example 7, 6-Cyclohexyl-4-hydroxypyridazin-3(2H)-one]",1100 nM
4,"CCN(C)c1cc(O)c(=O)[nH]n1 [Example 12, 6-(Ethyl(methyl)amino)-4-hydroxypyridazin-3(2H)-one]",150 nM
5,"O=c1[nH]nc(C2CC2)cc1O [Example 3, 6-Cyclopropyl-4-hydroxypyridazin-3(2H)-one]",40 nM
6,"CCc1cc(O)c(=O)[nH]n1 [Example 1, 6-Ethyl-4-hydroxypyridazin-3(2H)-one]",11 nM
7,"O=c1[nH]nc(C2CCOCC2)cc1O [Example 4, 4-Hydroxy-6-(tetrahydro-2H-pyran-4-yl)pyridazin-3(2H)-one]",4100 nM
8,"CC(C)CCc1cc(O)c(=O)[nH]n1 [Example 2, 4-Hydroxy-6-(3-methylbutyl)pyridazin-3(2H)-one]",61 nM

# The remaining compounds from weak to strong by IC50, led by results:
row,IC50,SMILES
1,3600 nM,"O=c1[nH]nc(N2CCCCC2)cc1O [Example 13, 4-Hydroxy-6-(piperidin-1-yl)pyridazin-3(2H)-one]"
2,670 nM,"O=c1[nH]nc(C2CCCC2)cc1O [Example 6, 6-Cyclopentyl-4-hydroxypyridazin-3(2H)-one]"
3,180 nM,"CCCN(C)c1cc(O)c(=O)[nH]n1 [Example 11, 4-Hydroxy-6-(methyl(propyl)amino)pyridazin-3(2H)-one]"
4,140 nM,"CC(C)Cc1cc(O)c(=O)[nH]n1 [Example 5, 4-Hydroxy-6-(2-methylpropyl)pyridazin-3(2H)-one]"
5,46 nM,"CN(C)c1cc(O)c(=O)[nH]n1 [Example 10, 6-(Dimethylamino)-4-hydroxypyridazin-3(2H)-one]"
6,36 nM,"CC(C)c1cc(O)c(=O)[nH]n1 [Example 8, 4-Hydroxy-6-isopropylpyridazin-3(2H)-one]"

# Source: patent publication US9750748B2, “Pyridazinones as DAAO enzyme inhibitors” (TAKEDA PHARMACEUTICAL COMPANY LIMITED, priority 2012, dated 2017)
